The supplement of paper PMC10883282
± gives the standard deviation of the averaged measurements.

Experiments:
Experiment in all cases: relative viability vs DMSO control (72 h) (fraction); higher = more viable cells
[1] = tested on: G401
How it was run: (§1)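 Sarcoma cell lines in 384-well plates, seeded to reach 80–90% confluence, were given compound after 24 h and kept 72 h at 37 °C, 5% CO2, with 0.1% DMSO vehicle and a 5 µM positive control. Relative viability came from ATPLite as percent growth, averaged over up to triplicate wells. On the rescaled values, 1 equals full and 0 equals none.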

[2] = tested on: RD-ES
How it was run: as §1

[3] = tested on: HT1080
How it was run: as §1

[4] = tested on: SW982
How it was run: as §1

[5] = tested on: SW1353
How it was run: as §1

[6] = tested on: SW684
How it was run: as §1

[7] = tested on: SK-ES-1
How it was run: as §1

[8] = tested on: KHOS-240S
How it was run: as §1

[9] = tested on: A204
How it was run: as §1

[10] = tested on: SW872
How it was run: as §1

[11] = tested on: SYO-1
How it was run: as §1

[12] = tested on: KHOS-NP
How it was run: as §1

CNC(=O)c1nnc(NC(=O)C2CC2)cc1Nc1cccc(-c2ncn(C)n2)c1OC
Conditions	relative viability
[1], 0.00017 µM	1 ± 0.024
[1], 0.00051 µM	0.988 ± 0.042
[1], 0.00152 µM	1.03 ± 0.055
[1], 0.00457 µM	1.03 ± 0.022
[1], 0.01372 µM	1.074 ± 0.0064
[1], 0.04115 µM	1.02 ± 0.029
[1], 0.1235 µM	1.04 ± 0.013
[1], 0.3704 µM	1.031 ± 0.0092
[1], 1.111 µM	1.013 ± 0.0081
[1], 3.333 µM	0.999 ± 0.039
[1], 10 µM	0.906 ± 0.027
[2], 0.00017 µM	0.987 ± 0.03
[2], 0.00051 µM	1.019 ± 0.0066
[2], 0.00152 µM	1.01 ± 0.024
[2], 0.00457 µM	0.988 ± 0.027
[2], 0.01372 µM	1.02 ± 0.053
[2], 0.04115 µM	1.02 ± 0.02
[2], 0.1235 µM	1.05 ± 0.026
[2], 0.3704 µM	1.06 ± 0.027
[2], 1.111 µM	1 ± 0.047
[2], 3.333 µM	0.998 ± 0.035
[2], 10 µM	0.847 ± 0.036
[3], 0.00017 µM	1.07 ± 0.012
[3], 0.00051 µM	1.04 ± 0.037
[3], 0.00152 µM	1.05 ± 0.023
[3], 0.00457 µM	1.03 ± 0.047
[3], 0.01372 µM	1.02 ± 0.035
[3], 0.04115 µM	1.05 ± 0.044
[3], 0.1235 µM	1.01
[3], 0.3704 µM	1.042 ± 0.01
[3], 1.111 µM	1.1 ± 0.034
[3], 3.333 µM	1.11 ± 0.058
[3], 10 µM	0.995 ± 0.0044
[4], 0.00017 µM	1.05 ± 0.056
[4], 0.00051 µM	1.06 ± 0.04
[4], 0.00152 µM	1.05 ± 0.048
[4], 0.00457 µM	1.04 ± 0.024
[4], 0.01372 µM	1.05 ± 0.03
[4], 0.04115 µM	1.06 ± 0.057
[4], 0.1235 µM	1.06 ± 0.028
[4], 0.3704 µM	1.07 ± 0.056
[4], 1.111 µM	1.06 ± 0.026
[4], 3.333 µM	1.02 ± 0.076
[4], 10 µM	0.722 ± 0.033
[5], 0.00017 µM	0.962 ± 0.024
[5], 0.00051 µM	0.988 ± 0.0088
[5], 0.00152 µM	0.968 ± 0.02
[5], 0.00457 µM	1 ± 0.036
[5], 0.01372 µM	0.985 ± 0.031
[5], 0.04115 µM	0.982 ± 0.042
[5], 0.1235 µM	0.978 ± 0.062
[5], 0.3704 µM	0.964 ± 0.034
[5], 1.111 µM	0.948 ± 0.049
[5], 3.333 µM	0.9937 ± 0.0088
[5], 10 µM	0.911 ± 0.044
[6], 0.00017 µM	1.16 ± 0.018
[6], 0.00051 µM	1.15 ± 0.12
[6], 0.00152 µM	1.18 ± 0.0016
[6], 0.00457 µM	1.15 ± 0.042
[6], 0.01372 µM	1.17 ± 0.039
[6], 0.04115 µM	1.17 ± 0.048
[6], 0.1235 µM	1.18 ± 0.087
[6], 0.3704 µM	1.2 ± 0.025
[6], 1.111 µM	1.15 ± 0.029
[6], 3.333 µM	1.14 ± 0.055
[6], 10 µM	1.12 ± 0.037
[7], 0.00017 µM	1.03 ± 0.082
[7], 0.00051 µM	1.03 ± 0.058
[7], 0.00152 µM	1.1 ± 0.055
[7], 0.00457 µM	1.03 ± 0.058
[7], 0.01372 µM	1.07 ± 0.012
[7], 0.04115 µM	1.04 ± 0.019
[7], 0.1235 µM	1.02 ± 0.047
[7], 0.3704 µM	1.04 ± 0.033
[7], 1.111 µM	0.968 ± 0.04
[7], 3.333 µM	0.891 ± 0.031
[7], 10 µM	0.517 ± 0.018
[8], 0.00017 µM	1.08 ± 0.028
[8], 0.00051 µM	1.07 ± 0.028
[8], 0.00152 µM	1.059 ± 0.0017
[8], 0.00457 µM	1.05 ± 0.016
[8], 0.01372 µM	1.07 ± 0.032
[8], 0.04115 µM	1.04 ± 0.019
[8], 0.1235 µM	1.06 ± 0.028
[8], 0.3704 µM	1.07 ± 0.018
[8], 1.111 µM	1.08 ± 0.026
[8], 3.333 µM	1.06 ± 0.011
[8], 10 µM	1.03 ± 0.016
[9], 0.00017 µM	1.1 ± 0.046
[9], 0.00051 µM	1.09 ± 0.021
[9], 0.00152 µM	1.08 ± 0.033
[9], 0.00457 µM	1.06 ± 0.023
[9], 0.01372 µM	1.06 ± 0.048
[9], 0.04115 µM	1.06 ± 0.021
[9], 0.1235 µM	1.07 ± 0.018
[9], 0.3704 µM	1.09 ± 0.037
[9], 1.111 µM	1.11 ± 0.054
[9], 3.333 µM	1.01 ± 0.025
[9], 10 µM	0.714 ± 0.042
[10], 0.00017 µM	1.01 ± 0.06
[10], 0.00051 µM	1 ± 0.046
[10], 0.00152 µM	0.995 ± 0.074
[10], 0.00457 µM	1.026 ± 0.0098
[10], 0.01372 µM	1.01 ± 0.071
[10], 0.04115 µM	1.02 ± 0.026
[10], 0.1235 µM	1.03 ± 0.052
[10], 0.3704 µM	1.02 ± 0.037
[10], 1.111 µM	1.02 ± 0.012
[10], 3.333 µM	0.957 ± 0.051
[10], 10 µM	0.768 ± 0.028
[11], 0.00017 µM	0.958 ± 0.039
[11], 0.00051 µM	0.969 ± 0.028
[11], 0.00152 µM	0.924 ± 0.059
[11], 0.00457 µM	0.937 ± 0.043
[11], 0.01372 µM	0.952 ± 0.037
[11], 0.04115 µM	0.935 ± 0.03
[11], 0.1235 µM	0.924 ± 0.065
[11], 0.3704 µM	0.888 ± 0.089
[11], 1.111 µM	0.928 ± 0.04
[11], 3.333 µM	0.983 ± 0.031
[11], 10 µM	0.918 ± 0.023
[12], 0.00017 µM	1.07 ± 0.012
[12], 0.00051 µM	1.08 ± 0.013
[12], 0.00152 µM	1.063 ± 0.005
[12], 0.00457 µM	1.06 ± 0.018
[12], 0.01372 µM	1.07 ± 0.0064
[12], 0.04115 µM	1.076 ± 0.0089
[12], 0.1235 µM	1.08 ± 0.029
[12], 0.3704 µM	1.07 ± 0.033
[12], 1.111 µM	1.061 ± 0.008
[12], 3.333 µM	1.09 ± 0.052
[12], 10 µM	1.05 ± 0.043
